Target: embryonic ectoderm development (EED) (Homo sapiens, UniProt O75530)
Sequence (O75530 2-441): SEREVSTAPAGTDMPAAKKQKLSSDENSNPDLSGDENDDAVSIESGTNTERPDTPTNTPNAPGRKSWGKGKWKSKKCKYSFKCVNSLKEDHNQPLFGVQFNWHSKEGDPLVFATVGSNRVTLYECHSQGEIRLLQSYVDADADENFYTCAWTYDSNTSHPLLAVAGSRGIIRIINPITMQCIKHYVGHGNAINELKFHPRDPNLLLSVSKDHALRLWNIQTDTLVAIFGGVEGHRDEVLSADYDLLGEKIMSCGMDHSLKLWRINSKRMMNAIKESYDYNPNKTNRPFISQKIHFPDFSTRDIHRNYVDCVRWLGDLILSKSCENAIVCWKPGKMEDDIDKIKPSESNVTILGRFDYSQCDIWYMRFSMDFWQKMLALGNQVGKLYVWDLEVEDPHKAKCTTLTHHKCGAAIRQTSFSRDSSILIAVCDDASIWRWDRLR

## CCOP(=O)(OCC)C(NC(=O)[C@H](Cc1ccc(-c2ccccc2)cc1)NC(=O)/C=C/c1ccc(-c2ccccc2)cc1)P(=O)(OCC)OCC [LG1980]
  Kd: 2710 nM

— PMC8171087, “Pharmacological inhibition of noncanonical EED-EZH2 signaling overcomes chemoresistance in prostate cancer” (Theranostics, 2021)
